Test results as given in patent US20060057639A1, “CaMKII/calcium channel phosphorylation-related compositions and methods” (priority 2004, published 2006).

Key:
[1] = target: T1, interaction of autophosphorylated CaMKII with α1C amino acids 1581-1690 (Rattus norvegicus, UniProt P11275); test: GST pull down of autophosphorylated α-CaMKII with α1C 1581-1690 fusion protein, peptide interference; format: binding; settings: 40 μM peptide; 20 nM autophosphorylated α-CaMKII
T1 construct: made in house; host or cells: GST fusion from bacteria
Experimental: (B) Immunoblot with CBα2 after GST pull down of purified autophosphorylated α-CaMKII (20 nM), using α1C amino acids 1581-1690 fused to GST. Pull down assay performed in the presence of 40 μM of the indicated peptide or the peptide diluent DMSO. (C) Immunoblots with CBα2 or an anti-CaM antibody after a GST pull down assay, using α1C amino acids 1581-1690 (WT), a ^1644TVGKFY^1649→EEDAAA mutant (Mut6), or GST alone, of purified autophosphorylated CaMKII (left) or CaM (right). Top panels show a Ponceau stain of each fusion protein. […] Asterisk indicates p<0.001 for a one-way analysis of variance followed by a Dunnett's test to identify specific pair-wise differences between the means for Mut6 vs. wt and GST vs. wt, n=4-8. […] Top panels show a Ponceau stain of each fusion protein.
Peptides spanning α1C residues 1581-1690 have previously been described (Pitt et al., 2001). The NMDA-L peptide (Bayer et al., 2001), peptides AC-2 (Hanson et al., 1989), AC-3i (Braun and Schulman, 1995), and AC-3c (Braun and Schulman, 1995) have been described elsewhere.
The binding reactions were accomplished in Tris binding buffer (50 mM Tris, 150 mM NaCl, 0.1% T-20 at pH 7.4 ml plus 0.1% BSA) containing 20 nM purified CaMKII. The total protein from the HEK293 cell lysates added to each binding reaction ranged from 9-22 μg, determined by normalizing for the amount of CaMKII activity (Singla et al., 2001). Pre-autophosphorylayion of CaMKII (purified and lysate) was accomplished at 4° C. for 5 min in Tris binding buffer plus 1 mM CaCl2, 5 μM CaM, 1 mM ATP, and 5 mM MgCl2 to restrict the sites of autophosphorylation to primarily Thr286 (Ikeda et al., 1991; Lai et al., 1987; Lou and Schulman, 1989). Final concentration of these components in the binding reaction (1:40) was 0.025 mM CaCl2, 0.125 μM CaM, 0.025 mM ATP, and 0.125 mM MgCl2. The binding reaction was rocked for 1 h at 4° C. and the beads extensively washed in Tris binding buffer (2-3× for 5 mins each). […] CaMKII binding was quantified using densiotometric measurement of band intensity using KODAK 1D Image Analysis Software (Eastman Kodak, Company). […]

[2] = target: cloned L-type channels (subunit α1C77) (Homo sapiens, UniProt Q13936); test: Check for use-dependence of diltiazem block of calcium currents supported by cloned L-type channels; format: cell-based; settings: same solutions and voltage protocol as in granule cells; diltiazem 100 μM
Sequence of cloned L-type channels (subunit α1C77) (Q13936 1-2138 isoform Q13936-20): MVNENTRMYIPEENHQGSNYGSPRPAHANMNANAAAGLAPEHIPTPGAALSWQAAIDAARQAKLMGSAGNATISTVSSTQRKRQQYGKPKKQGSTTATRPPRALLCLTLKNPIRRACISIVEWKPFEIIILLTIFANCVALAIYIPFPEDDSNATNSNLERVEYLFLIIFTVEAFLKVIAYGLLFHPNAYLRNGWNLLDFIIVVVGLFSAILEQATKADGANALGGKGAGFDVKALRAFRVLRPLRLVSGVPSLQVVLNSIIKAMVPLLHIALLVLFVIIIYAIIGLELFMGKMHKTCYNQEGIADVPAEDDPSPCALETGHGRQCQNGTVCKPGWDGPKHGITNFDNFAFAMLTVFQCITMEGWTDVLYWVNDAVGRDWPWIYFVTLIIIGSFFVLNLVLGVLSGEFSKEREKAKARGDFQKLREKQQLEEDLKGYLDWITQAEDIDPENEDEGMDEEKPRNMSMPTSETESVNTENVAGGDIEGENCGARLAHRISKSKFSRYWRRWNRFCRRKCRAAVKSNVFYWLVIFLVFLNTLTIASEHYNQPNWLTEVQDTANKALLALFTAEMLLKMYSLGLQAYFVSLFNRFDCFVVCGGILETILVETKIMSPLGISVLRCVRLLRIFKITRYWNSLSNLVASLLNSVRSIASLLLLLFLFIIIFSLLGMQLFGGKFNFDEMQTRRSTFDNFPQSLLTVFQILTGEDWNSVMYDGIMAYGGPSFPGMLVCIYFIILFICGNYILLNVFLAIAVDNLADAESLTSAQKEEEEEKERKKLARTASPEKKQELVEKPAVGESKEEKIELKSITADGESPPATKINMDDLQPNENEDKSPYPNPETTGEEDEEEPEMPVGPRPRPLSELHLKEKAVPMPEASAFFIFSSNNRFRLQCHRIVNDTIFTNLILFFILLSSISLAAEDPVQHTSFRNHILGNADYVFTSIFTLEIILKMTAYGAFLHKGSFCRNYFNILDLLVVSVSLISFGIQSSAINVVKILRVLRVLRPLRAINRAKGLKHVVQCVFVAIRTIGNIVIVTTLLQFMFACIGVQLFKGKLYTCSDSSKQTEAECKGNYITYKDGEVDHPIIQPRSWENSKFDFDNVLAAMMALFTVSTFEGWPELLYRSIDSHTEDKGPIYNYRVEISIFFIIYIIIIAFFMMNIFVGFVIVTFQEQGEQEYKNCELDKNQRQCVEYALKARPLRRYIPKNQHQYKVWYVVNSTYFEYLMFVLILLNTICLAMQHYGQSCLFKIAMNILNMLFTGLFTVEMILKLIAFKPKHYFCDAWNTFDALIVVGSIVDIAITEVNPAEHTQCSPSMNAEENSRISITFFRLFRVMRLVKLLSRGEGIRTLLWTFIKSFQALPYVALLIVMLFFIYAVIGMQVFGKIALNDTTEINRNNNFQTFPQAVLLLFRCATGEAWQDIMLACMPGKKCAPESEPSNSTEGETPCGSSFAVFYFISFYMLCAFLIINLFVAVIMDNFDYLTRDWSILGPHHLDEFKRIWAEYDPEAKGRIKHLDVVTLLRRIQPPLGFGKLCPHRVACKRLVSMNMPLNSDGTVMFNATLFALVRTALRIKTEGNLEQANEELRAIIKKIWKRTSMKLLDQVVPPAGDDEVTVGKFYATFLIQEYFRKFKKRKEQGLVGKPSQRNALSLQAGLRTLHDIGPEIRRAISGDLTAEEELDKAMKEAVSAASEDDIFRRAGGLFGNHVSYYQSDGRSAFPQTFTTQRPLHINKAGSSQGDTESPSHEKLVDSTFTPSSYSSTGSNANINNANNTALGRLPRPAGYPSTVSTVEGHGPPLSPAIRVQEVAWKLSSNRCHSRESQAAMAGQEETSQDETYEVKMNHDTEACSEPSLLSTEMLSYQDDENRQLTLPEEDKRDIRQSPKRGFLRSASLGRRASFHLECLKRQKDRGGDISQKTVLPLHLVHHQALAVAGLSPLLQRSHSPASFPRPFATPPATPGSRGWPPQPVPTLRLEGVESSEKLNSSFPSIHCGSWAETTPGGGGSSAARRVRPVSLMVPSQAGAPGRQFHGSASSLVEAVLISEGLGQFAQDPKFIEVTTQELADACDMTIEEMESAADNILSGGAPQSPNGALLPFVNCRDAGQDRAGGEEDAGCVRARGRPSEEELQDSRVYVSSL
Sequence of cloned L-type channels (subunit α1C77) (P54289 25-956 partner limits assumed): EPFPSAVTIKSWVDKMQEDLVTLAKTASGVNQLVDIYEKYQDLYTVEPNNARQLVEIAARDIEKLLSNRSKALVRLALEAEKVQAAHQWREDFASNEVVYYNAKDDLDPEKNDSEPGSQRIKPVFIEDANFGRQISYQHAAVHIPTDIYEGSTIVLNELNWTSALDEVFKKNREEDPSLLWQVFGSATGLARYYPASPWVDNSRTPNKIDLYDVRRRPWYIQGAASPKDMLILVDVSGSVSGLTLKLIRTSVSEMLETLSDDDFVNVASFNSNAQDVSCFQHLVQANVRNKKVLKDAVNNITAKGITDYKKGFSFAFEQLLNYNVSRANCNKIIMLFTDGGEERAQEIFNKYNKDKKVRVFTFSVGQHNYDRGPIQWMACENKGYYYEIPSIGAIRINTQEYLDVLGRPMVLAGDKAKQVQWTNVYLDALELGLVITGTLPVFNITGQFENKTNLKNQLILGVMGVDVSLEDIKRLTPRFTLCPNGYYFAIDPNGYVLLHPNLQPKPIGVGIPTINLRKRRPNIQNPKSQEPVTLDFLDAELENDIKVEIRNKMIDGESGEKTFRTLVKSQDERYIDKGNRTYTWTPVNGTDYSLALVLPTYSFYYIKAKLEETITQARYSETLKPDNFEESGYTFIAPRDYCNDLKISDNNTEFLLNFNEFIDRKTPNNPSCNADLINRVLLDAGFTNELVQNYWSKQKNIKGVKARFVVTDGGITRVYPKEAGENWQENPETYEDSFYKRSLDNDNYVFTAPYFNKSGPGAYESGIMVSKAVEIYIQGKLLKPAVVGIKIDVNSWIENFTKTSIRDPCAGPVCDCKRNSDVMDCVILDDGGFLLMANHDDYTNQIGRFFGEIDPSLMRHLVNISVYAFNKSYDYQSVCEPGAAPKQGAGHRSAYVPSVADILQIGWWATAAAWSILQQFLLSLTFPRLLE
Sequence of cloned L-type channels (subunit α1C77) (P54289 957-1103 partner limits assumed): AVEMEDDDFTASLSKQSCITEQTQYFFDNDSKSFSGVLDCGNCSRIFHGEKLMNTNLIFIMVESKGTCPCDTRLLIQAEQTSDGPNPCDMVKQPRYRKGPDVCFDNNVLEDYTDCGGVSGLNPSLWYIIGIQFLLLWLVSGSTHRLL
Sequence of cloned L-type channels (subunit α1C77) (Q02641 whole entry partner): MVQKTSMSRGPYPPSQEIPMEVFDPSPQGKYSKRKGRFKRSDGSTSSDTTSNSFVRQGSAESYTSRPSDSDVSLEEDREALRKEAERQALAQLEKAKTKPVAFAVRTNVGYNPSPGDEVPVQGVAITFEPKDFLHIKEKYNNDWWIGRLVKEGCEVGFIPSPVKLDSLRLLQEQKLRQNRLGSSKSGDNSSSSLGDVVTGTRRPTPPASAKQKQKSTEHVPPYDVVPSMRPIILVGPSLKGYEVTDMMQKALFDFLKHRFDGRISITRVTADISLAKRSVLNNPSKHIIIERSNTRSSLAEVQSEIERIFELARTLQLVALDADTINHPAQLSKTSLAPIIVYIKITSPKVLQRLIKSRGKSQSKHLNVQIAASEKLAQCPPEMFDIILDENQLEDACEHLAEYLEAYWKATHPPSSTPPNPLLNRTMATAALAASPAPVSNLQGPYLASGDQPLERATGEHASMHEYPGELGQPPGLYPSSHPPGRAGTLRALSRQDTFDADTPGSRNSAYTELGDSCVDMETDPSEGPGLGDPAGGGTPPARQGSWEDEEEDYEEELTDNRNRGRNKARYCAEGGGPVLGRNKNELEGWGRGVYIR
Experimental: Dissociated cerebellar granule cells were prepared from 7-day old C57/BL6 mouse cerebella and grown in culture by a published protocol (Piedras-Renteria and Tsien, 1998; Randall and Tsien, 1995). The cerebellar granule cells were maintained in Minimal Essential Medium (Invitrogen) supplemented with 10% fetal bovine serum, glucose 5 mg/liter, transferrin 100 mg/liter, insulin 25 mg/liter, glutamine 300 mg/liter, and potassium chloride 20 mM. Cells were plated on Matrigel (Collaborative Biomedical Product) treated glass coverslips in 24-well chambers and maintained in a humidified, 37° C. incubator with […]/5% CO2. Cells were maintained for 6 to 9 days in culture prior to electrophysiological experiments. HEK293 cells stably transfected with the α2-δ and β1C subunits (HEKα2β1) were grown in Dulbecco's Modified Eagle's Medium containing 10% v/v calf serum, penicillin (100 units/ml), streptomycin (100 μg/ml), and kept under positive selection with Geneticin (400 μg/ml) while being maintained as described above. cDNAs encoding the α1C77 subunit (Zühlke and Reuter, 1998) and the green fluorescent protein were transiently transfected into HEKα2β1 cells by using the Lipofectamine2000 reagent (Invitrogen). Electrophysiological experiments were performed >24 hrs after transfection.

CaMKII = CaMKII dephosphorylation using PP1, autonomous activity measurement; format: biochemical; settings: n=4
Sequence of CaMKII (P11275 whole entry, the tested form may be a part): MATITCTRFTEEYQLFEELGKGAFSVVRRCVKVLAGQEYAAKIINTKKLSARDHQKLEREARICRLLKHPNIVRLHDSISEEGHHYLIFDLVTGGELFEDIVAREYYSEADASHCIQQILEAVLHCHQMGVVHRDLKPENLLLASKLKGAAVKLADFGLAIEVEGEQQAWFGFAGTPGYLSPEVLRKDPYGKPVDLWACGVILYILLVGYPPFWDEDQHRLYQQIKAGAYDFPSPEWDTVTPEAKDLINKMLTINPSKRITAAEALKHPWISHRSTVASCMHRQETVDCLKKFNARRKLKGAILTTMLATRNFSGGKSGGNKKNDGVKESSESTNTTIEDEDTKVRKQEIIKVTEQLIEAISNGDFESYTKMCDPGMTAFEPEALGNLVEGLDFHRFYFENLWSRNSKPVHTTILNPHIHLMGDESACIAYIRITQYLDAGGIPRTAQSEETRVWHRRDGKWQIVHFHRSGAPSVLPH
Experimental: Immunoblots with CBα2 or a phospho-specific CaMKII monoclonal antibody after GST pull down assays, using α1C amino acids 1509-1950 and 20 nM autophosphorylated α-CaMKII. (A) 5 mM EGTA was present in the binding reaction and/or in the wash; in (B), purified recombinant PP1 was added before (PP1-Pre) or after (PP1-Post) the binding reaction in the presence or absence of 5 mM EGTA, as indicated. (C) Time course of reversal of CaMKII autonomous activity following PP1 treatment in solution (n=4). (D) Activity measurements, using peptide AC-2 as a substrate, of CaMKII recovered in GST pull down assays, using α1C amino acids 1509-1950. Ca^2+/CaM-dependent and autonomous activity measurements of CaMKII recovered after treatment with recombinant PP1 for 30 min (PP1) or no treatment (−) in the binding assay (n=4). (E) Proposed mechanism of CaMKII binding to α1C to form a local and dedicated Ca^2+ spike integrator for CDF. […] Ca ^2+/CaM activation and Thr 286 autophosphorylation displace the CaMKII autoregulatory domain within the catalytic lobe to activate the subunit (yellow) and to expose an α1C tethering site. […] CaMKII may remain tethered to other cytoplasmic domains of α1C, as well. […]

[3] = system: L-type Ca^2+ currents in cerebellar granule cells; test: Patch-clamp recording of Ca2+-dependent facilitation of L-type currents in cultured cerebellar granule cells; format: cell-based, mouse; settings: 2 μM peptide in patch pipette; Ca^2+ as charge carrier; train of five pulses; without peptide facilitation averaged ~50%
Experimental: Dissociated cerebellar granule cells were prepared from 7-day old C57/BL6 mouse cerebella and grown in culture by a published protocol (Piedras-Renteria and Tsien, 1998; Randall and Tsien, 1995). The cerebellar granule cells were maintained in Minimal Essential Medium (Invitrogen) supplemented with 10% fetal bovine serum, glucose 5 mg/liter, transferrin 100 mg/liter, insulin 25 mg/liter, glutamine 300 mg/liter, and potassium chloride 20 mM. Cells were plated on Matrigel (Collaborative Biomedical Product) treated glass coverslips in 24-well chambers and maintained in a humidified, 37° C. incubator with […]/5% CO2. Cells were maintained for 6 to 9 days in culture prior to electrophysiological experiments. […]
Cerebellar granule cells, identified on the basis of morphology and size, comprised >90% of the cells in the primary culture. […] Voltage-gated Ca^2+ and Ba^2+ currents were recorded from cells depolarized to 0 mV with five 20 ms pulses (50 ms interpulse interval) from a −90 mV holding potential. […]

1589-1610: ~22 aa peptide of α1C residues 1589-1610, site important for tethering of apoCaM (KRLVSMNMPLNSDGTVMFNATL; UniProt Q13936 1589-1610, looked up, fragment)
interaction of the kinase with the 1581-1690 fusion protein in presence of peptide [1]: not inhibited

1615-1636: ~22 aa peptide of α1C residues 1615-1636, site important for tethering of apoCaM (RTALRIKTEGNLEQANEELRAI; UniProt Q13936 1615-1636, looked up, fragment)
interaction of the kinase with the 1581-1690 fusion protein in presence of peptide [1]: not inhibited

1639-1660: ~22 aa peptide generated from α1C residues 1639-1660 (Pitt et al., 2001) (KIWKRTSMKLLDQVVPPAGDDE; UniProt Q13936 1639-1660, looked up, fragment)
interaction of the kinase with the 1581-1690 fusion protein in presence of peptide [1]: dramatically reduced

COc1ccc([C@@H]2Sc3ccccc3N(CCN(C)C)C(=O)[C@@H]2OC(C)=O)cc1 [diltiazem]
use-dependence of diltiazem block of calcium currents [2]: none were found

PP1: Hisx6-tagged protein phosphatase 1 catalytic subunit, purified recombinant
remaining autonomous activity of α1C-bound CaMKII, % of that without PP1 treatment (CaMKII; PP1 for 30 min, peptide AC-2 as substrate): 1.2±0.6% | time to complete dephosphorylation (loss of autonomous activity) of soluble kinase (CaMKII; soluble CaMKII in solution): ≤ 30 min

autocamtide-2-related inhibitory peptide (KKALRRQEAVDAL)
decrease in peak L-type current over the course of the depolarizing pulse train [3]: ~25%
